According to patent US4150146A, “Process for the preparation of unsymmetrically 1,3-disubstituted nitroso ureas” (priority 1976, dated 1979):

Key:
rat leukaemia L 5222 = experiment: Chemotherapeutic activity against rat leukaemia L 5222 (cures); format: in vivo; settings: for L 5222 cures %: 50% of the acute LD50 i.p., treatment on day 6 after transplantation of 5 × 10^6 cells, rats surviving 60 days after treatment considered cured
Text: (§1) The chemotherapeutic activity of Compounds 1 to 8 against rat leukaemia L 5222 and s.c. Walker carcinosarcoma is shown in the accompanying Table II, together with that of still another BCNU analog and of BCNU itself.
(§2) The chemotherapeutic activity of Compounds 1 to 8,
(§3) another analog of BCNU, and BCNU against rat leukaemia
(§4) L 5222 and s.c. Walker carcinosarcoma
(§5) ^1 50% of the acute LD50 were given i.p.
^2 Treatment on day 6 after transplantation of 5 × 10^6
^3 Rats surviving 60 days after treatment were considered cured.

[1] = system: s.c. Walker carcinosarcoma; experiment: Chemotherapeutic activity against s.c. Walker carcinosarcoma (tumor weight inhibition); format: in vivo, rat (Sprague Dawley); settings: for s.c. Walker T.W.I.% (tumor weight inhibition): 50% of the acute LD50 i.p., treatment on day 4 after transplantation, T.W.I. on day 8, 10 Sprague Dawley rats per group
Text: as §1, §2, §3, §4, §5
^4 Treatment on day 4 after transplantation. Each group consisted of
10 Sprague Dawley vats.
^5 T.W.I. corresponds to tumor weight inhibition in % on day 8,?

Stability = format: physicochemical; settings: liquid compounds
[2] = system: autochthonic DMBA-induced mammary carcinoma; experiment: Animal test against autochthonic DMBA-induced mammary carcinoma; format: in vivo, rat; settings: in words; for activity against autochthonic DMBA-induced mammary carcinoma relative to Adriamycin / BCNU: comparison with Adriamycin (and BCNU)
Delayed toxicity = format: in vivo; settings: contrary to BCNU; preliminary
[3] = Solubility in water (or tissue fluids); format: physicochemical; settings: comparison with BCNU, in words

Structure (SMILES) | L 5222 cures % (rat leukaemia L 5222) [%] | s.c. Walker T.W.I.% (tumor weight inhibition) [1] [%] | further results
Cc1ccc(NC(=O)N(CCCl)N=O)cc1NC(=O)N(CCCl)N=O [1,1'-(4-methyl-m-phenylene)bis-CNU] | 0 | 35 | 
O=NN(CCCl)C(=O)NCCCl [BCNU, 1,3-bis-(2-chloroethyl)-1-nitroso urea, reference compound] | 70 | 83 | 
O=NN(CCCl)C(=O)NCCNC(=O)N(CCCl)N=O [Compound 1, 1,1'-ethylenebis-CNU] | 60 | 75 | 
O=NN(CCCl)C(=O)NCCCNC(=O)N(CCCl)N=O [Compound 2, 1,1'-propylenebis-CNU] | 60 | 72 | 
O=NN(CCCl)C(=O)NCCCCNC(=O)N(CCCl)N=O [Compound 3, 1,1'-tetramethylenebis-CNU] | 75 | 77 | 
O=NN(CCCl)C(=O)NCCCCCNC(=O)N(CCCl)N=O [Compound 4, 1,1'-pentamethylenebis-CNU] | 30 | 68 | 
O=NN(CCCl)C(=O)NCCCCCCNC(=O)N(CCCl)N=O [Compound 5, 1,1'-hexamethylenebis-CNU] | 50 | 70 | 
O=NN(CCCl)C(=O)NCCO [Compound 6, 1-(2-hydroxyethyl)-3-(2-chloroethyl)-3-nitroso urea] | 90 | 85 | chemotherapeutic activity against rat leukaemia L 5222 and s.c. Walker carcinosarcoma (in words) (rat leukaemia L 5222; summary of Table II, both tumor models): outstanding activity
O=NN(CCCl)C(=O)NCCCO [Compound 7, 1-(3-hydroxypropyl)-CNU] | 10 | 0 | stability (for elementary analysis) (Stability): not stable enough for elementary analysis
O=NN(CCCl)C(=O)NCCCCO [Compound 8, 1-(4-hydroxybutyl)-CNU] | 5 | 4 | stability (for elementary analysis) (Stability): not stable enough for elementary analysis
CS(=O)(=O)OCCNC(=O)N(CCCl)N=O [Compound 9] |  |  | activity against rat autochthonic DMBA-induced mammary carcinoma ([2]; animal test): excellent activity; activity against autochthonic DMBA-induced mammary carcinoma relative to Adriamycin / BCNU [2]: significantly exceeding that of "Adriamycin"
NC(=O)CNC(=O)N(CCCl)N=O [Compound 10, 2-(3-(2-chloroethyl))-3-nitrosoureido acetamide] |  |  | delayed toxicity (Delayed toxicity): little delayed toxicity; solubility in water relative to BCNU [3]: better solubility in water; activity against s.c. Walker carcinosarcoma relative to BCNU ([1]; preliminary animal test, comparison with BCNU): same activity against s.c. Walker carcinosarcoma as BCNU; activity against autochthonic DMBA-induced mammary carcinoma relative to Adriamycin / BCNU [2]: better activity than "Adriamycin" or BCNU
